Patent publication US20200231912A1, “USE OF STEVIOL GLYCOSIDE IN MALTING” (Corn Products Development, Inc., priority 2017, published 2020)

Columns and labels:
[1] = system: two row barley; assay: Malting trials: overall malt quality against defined specifications; settings: Example 2; inferred from content in compositions A-E and Table 6
Method: Cereal grain malting trials were performed according to the methods described herein to compare Control malts # 1, 2 and 3 with Test malts # 1, 2, 3, 4 and 5, where steviol glycosides were added at the following rates: • Test 1: 0.00019 kg per 1 metric ton of unmalted barley; • Test 2: 0.00013 kg per 1 metric ton of unmalted barley; • Test 3: 0.00024 kg per 1 metric ton of unmalted barley; • Test 4: 0.00070 kg per 1 metric ton of unmalted barley; • Test 5: 0.00043 kg per 1 metric ton of unmalted barley; The steviol glycosides were added at the beginning of the germination process, prior to kilning. Table 5 illustrates the weight percent ranges of each steviol glycoside in a mixture of steviol glycosides.
Control malts # 1, 2 and 3 and Test malts # 1, 2, 3, 4 and 5 were prepared as follows. The general process is illustrated in FIG. 10.
Control Malt # 1 was produced according to the steeping process described in FIG. 10, which was performed in flat bottomed steep vessel, adding 400 kg of 100% two row barley having a 10% moisture content to water. The steeping process included three steeping steps, including a steeping step which was conducted for 1:15 hours and followed by a drying step which was aeration at 19-21° C. during 6 hours. The steeping step was repeated two times. When the steeping degree of the cereal grains measured ≥42%, the water was drained off in preparation for germination. Steviol glycosides and/or gibberellic acid were not added during Control Malt # 1 production.
The germinating step of Control Malt # 1 is described in FIG. 10, which occurred in a typical rectangular germination box (e.g., unit type Saladin) for 5.5 days. The ventilation air temperature during the germinating step was 15-18° C. from the first until the third germination day, followed by ventilation air temperature of 11-15° C. from the third until the last germination day, and the moisture content was 43-47%. The malt turning procedures, which provide the mixing for the germinating kernels, were used first after 24 hours of germination and second after 48 hours of germination. Once the germination time achieved the expected value for Control Malt # 1, the kernels were kilned.
The kilning step is then described in FIG. 10 as using a single floor kiln with gas heating. The kernels were heated for 16:30 hours using hot air from 55-70° C., then for 5 hours using hot air at 80° C. […] The malt was cleaned by removing the rootlets using a malt deculming screw, and the cleaned malt was packaged into 25 kilogram bags.

[2] = system: two row barley; assay: Huzzar rate assay; assay type: in vivo; settings: Example 2; 4.5 days germination; % printed
Description: The Huzzar rate assay informs the ratio of cereal kernels in which the acrospires have emerged from end of grains. A range of devices have been used as measuring aids having magnifying lenses and ruled scales with diverging lines that are arranged over the grain with the base and tip at the “0” and “1” lines and then divide the grain length into ¼, ½, ⅔, ¾, 1 and 1+ or overgrown. The results may be expressed as an average value. Typical result for Huzzar rate analysis is maximum 3%.

[3] = system: two row barley; assay: Germination rate assay; assay type: in vivo; settings: Example 2; 4.5 days germination; % printed
Method: The Germination rate assay informs the percentage of germinated kernels during malting. One hundred barley grains are placed inside each one of four Petri plates containing 4mL of distilled water in a paper filter. The number of germinated kernels is measured after 24, 48 and 72 hours respectively. The germination rate is defined comparing the number of germinated kernels at 24, 48 and 72 h with total number of kernels (400). Typical result for Germination rate analysis is minimum 95%.

Row | Molecule | impact on stimulation of barley germination [1] | further results
1 | Rebaudioside B | seems to impact barley germination at certain content ranges | –
2 | C=C1C[C@@]23CC[C@H]4[C@@](C)(CCC[C@@]4(C)C(=O)O[C@@H]4O[C@H](CO)[C@@H](O)[C@H](O)[C@H]4O)[C@@H]2CC[C@]1(O[C@@H]1O[C@H](CO)[C@@H](O)[C@H](O)[C@H]1O)C3 [Rubusoside] | do not seem to play a significant role | –
3 | C=C1C[C@@]23CC[C@H]4[C@@](C)(CCC[C@@]4(C)C(=O)O[C@@H]4O[C@H](CO)[C@@H](O)[C@H](O)[C@H]4O)[C@@H]2CC[C@]1(O[C@@H]1O[C@H](CO)[C@@H](O)[C@H](O)[C@H]1O[C@@H]1O[C@@H](C)[C@H](O)[C@@H](O)[C@H]1O)C3 [Dulcoside A] | negative impact | –
4 | Rebaudioside F | seems to impact barley germination at certain content ranges | –
5 | Rebaudioside C | positive impact | –
6 | C=C1C[C@@]23CC[C@H]4[C@@](C)(CCC[C@@]4(C)C(=O)O[C@@H]4O[C@H](CO)[C@@H](O)[C@H](O)[C@H]4O)[C@@H]2CC[C@]1(O[C@@H]1O[C@H](CO)[C@@H](O)[C@H](O[C@@H]2O[C@H](CO)[C@@H](O)[C@H](O)[C@H]2O)[C@H]1O[C@@H]1O[C@H](CO)[C@@H](O)[C@H](O)[C@H]1O)C3 [Rebaudioside A] | positive impact | effect on proteolytic enzymes activity and protein breakdown [1]: appears to have an effect
7 | C=C1C[C@@]23CC[C@H]4[C@@](C)(CCC[C@@]4(C)C(=O)O[C@@H]4O[C@H](CO)[C@@H](O)[C@H](O)[C@H]4O)[C@@H]2CC[C@]1(O[C@@H]1O[C@H](CO)[C@@H](O)[C@H](O)[C@H]1O[C@@H]1O[C@H](CO)[C@@H](O)[C@H](O)[C@H]1O)C3 [Stevioside] | do not seem to play a significant role | –
8 | C=C1C[C@]23C[C@@]1(O)CC[C@H]2[C@@]12C=C[C@H](O)[C@@](C)(C(=O)O1)[C@H]2[C@@H]3C(=O)O [Control 3, Gibberellic acid] | – | Huzzar rate [2]: 5%; Germination rate [3]: 90%
9 | C=C1C[C@@]23CC[C@H]4[C@@](C)(CCC[C@@]4(C)C(=O)O)[C@@H]2CC[C@]1(O[C@@H]1O[C@H](CO)[C@@H](O)[C@H](O)[C@H]1O[C@@H]1O[C@H](CO)[C@@H](O)[C@H](O)[C@H]1O)C3 [Steviolbioside] | do not seem to play a significant role | –
10 | C=C1C[C@@]23CC[C@H]4[C@@](C)(CCC[C@@]4(C)C(=O)O[C@@H]4O[C@H](CO)[C@@H](O)[C@H](O)[C@H]4O[C@@H]4O[C@H](CO)[C@@H](O)[C@H](O)[C@H]4O)[C@@H]2CC[C@]1(O[C@@H]1O[C@H](CO)[C@@H](O)[C@H](O[C@@H]2O[C@H](CO)[C@@H](O)[C@H](O)[C@H]2O)[C@H]1O[C@@H]1O[C@H](CO)[C@@H](O)[C@H](O)[C@H]1O)C3 [Rebaudioside D] | do not seem to play a significant role | –
